# Test system: 521955-158-R2-J5-PDC complex spheroids, viability
# Assay: Anticancer human tumor 521955-158-R2-J5-PDC patient-derived pancreatic carcinoma cell line growth inhibition [RAS]
# Conditions: for viability, T/C: stronger effect = lower value
# Summary of the method: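 Multi-cell-type spheroids: tumor cells plus HUVEC endothelial cells and mesenchymal stem cells. RAS-pathway inhibitors were combined with targeted agents, each dosed in half-log steps down from clinical Cmax, or from 10 microM when Cmax was unknown.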
# 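Further: compound exposure lasted seven days before the viability read.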
# 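Wherever viability, T/C is given: spheroids also contain HUVEC endothelial cells and mesenchymal stem cells as stroma.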
smiles,measurement,setting,value
O=C(c1ccc(F)c(F)c1Nc1ccc(I)cc1F)N1CC(O)([C@@H]2CCCCN2)C1 + C#Cc1c(F)ccc2cc(O)cc(-c3ncc4c(N5CC6CCC(C5)N6)nc(OCC56CCCN5CC(F)C6)nc4c3F)c12,IC50,"curve of first compound, second compound 0.0316 µM",13.9 nM
same,IC50,"curve of first compound, second compound 0.1 µM",9.71 nM
same,IC50,"curve of first compound, second compound 0.316 µM",5.09 nM
same,IC50,"curve of first compound, second compound 1 µM",< 3.16 nM
same,IC50,"curve of first compound, second compound 3.16 µM",< 3.16 nM
same,IC50,"curve of first compound, second compound 10 µM",< 3.16 nM
same,"viability, T/C","second compound 0.0316 µM, first compound 0.00316 µM",57.3%
same,"viability, T/C","second compound 0.0316 µM, first compound 0.01 µM",53%
same,"viability, T/C","second compound 0.0316 µM, first compound 0.0316 µM",43.3%
same,"viability, T/C","second compound 0.0316 µM, first compound 0.1 µM",35.2%
same,"viability, T/C","second compound 0.0316 µM, first compound 0.316 µM",23.4%
same,"viability, T/C","second compound 0.0316 µM, first compound 1 µM",15.4%
same,"viability, T/C","second compound 0.1 µM, first compound 0.00316 µM",54.5%
same,"viability, T/C","second compound 0.1 µM, first compound 0.01 µM",54.2%
same,"viability, T/C","second compound 0.1 µM, first compound 0.0316 µM",34.3%
same,"viability, T/C","second compound 0.1 µM, first compound 0.1 µM",29.3%
same,"viability, T/C","second compound 0.1 µM, first compound 0.316 µM",20.1%
same,"viability, T/C","second compound 0.1 µM, first compound 1 µM",15%
same,"viability, T/C","second compound 0.316 µM, first compound 0.00316 µM",51.5%
same,"viability, T/C","second compound 0.316 µM, first compound 0.01 µM",47.6%
same,"viability, T/C","second compound 0.316 µM, first compound 0.0316 µM",38.4%
same,"viability, T/C","second compound 0.316 µM, first compound 0.1 µM",36%
same,"viability, T/C","second compound 0.316 µM, first compound 0.316 µM",19.1%
same,"viability, T/C","second compound 0.316 µM, first compound 1 µM",17%
same,"viability, T/C","second compound 1 µM, first compound 0.00316 µM",44.6%
same,"viability, T/C","second compound 1 µM, first compound 0.01 µM",43%
same,"viability, T/C","second compound 1 µM, first compound 0.0316 µM",38.6%
same,"viability, T/C","second compound 1 µM, first compound 0.1 µM",23.2%
same,"viability, T/C","second compound 1 µM, first compound 0.316 µM",14.4%
same,"viability, T/C","second compound 1 µM, first compound 1 µM",12.4%
same,"viability, T/C","second compound 3.16 µM, first compound 0.00316 µM",43.9%
same,"viability, T/C","second compound 3.16 µM, first compound 0.01 µM",41.9%
same,"viability, T/C","second compound 3.16 µM, first compound 0.0316 µM",27%
same,"viability, T/C","second compound 3.16 µM, first compound 0.1 µM",18.4%
same,"viability, T/C","second compound 3.16 µM, first compound 0.316 µM",10.9%
same,"viability, T/C","second compound 3.16 µM, first compound 1 µM",7.26%
same,"viability, T/C","second compound 10 µM, first compound 0.00316 µM",41.3%
same,"viability, T/C","second compound 10 µM, first compound 0.01 µM",29.1%
same,"viability, T/C","second compound 10 µM, first compound 0.0316 µM",27.2%
same,"viability, T/C","second compound 10 µM, first compound 0.1 µM",15.3%
same,"viability, T/C","second compound 10 µM, first compound 0.316 µM",2.76%
same,"viability, T/C","second compound 10 µM, first compound 1 µM",2.89%
C=CC(=O)N1CCN(c2nc(OCC3CCCN3C)nc3c(F)c(-c4nc(N)cc(C)c4C(F)(F)F)c(Cl)cc23)C(C)C1 (stereo not drawn) + CCn1c(-c2cccnc2C(C)OC)c2c3cc(ccc31)N1CCOC(CC(NC(=O)C(C(C)C)N(C)C(=O)C3(F)CCN(C(=O)C#CC(C)(C)N(C)C)CC3)C(=O)N3CCCC(N3)C(=O)OCC(C)(C)C2)C1,IC50,"curve of first compound, second compound 0.000949 µM",> 1000 nM
same,IC50,"curve of first compound, second compound 0.003 µM",> 1000 nM
same,IC50,"curve of first compound, second compound 0.00949 µM",> 1000 nM
same,IC50,"curve of first compound, second compound 0.03 µM",> 1000 nM
same,IC50,"curve of first compound, second compound 0.0949 µM",> 1000 nM
same,IC50,"curve of first compound, second compound 0.3 µM",> 1000 nM
same,"viability, T/C","second compound 0.000949 µM, first compound 0.00316 µM",100%
same,"viability, T/C","second compound 0.000949 µM, first compound 0.01 µM",104%
same,"viability, T/C","second compound 0.000949 µM, first compound 0.0316 µM",104%
same,"viability, T/C","second compound 0.000949 µM, first compound 0.1 µM",103%
same,"viability, T/C","second compound 0.000949 µM, first compound 0.316 µM",99.1%
same,"viability, T/C","second compound 0.000949 µM, first compound 1 µM",92.7%
same,"viability, T/C","second compound 0.003 µM, first compound 0.00316 µM",93.2%
same,"viability, T/C","second compound 0.003 µM, first compound 0.01 µM",88.3%
same,"viability, T/C","second compound 0.003 µM, first compound 0.0316 µM",107%
same,"viability, T/C","second compound 0.003 µM, first compound 0.1 µM",113%
same,"viability, T/C","second compound 0.003 µM, first compound 0.316 µM",86.5%
same,"viability, T/C","second compound 0.003 µM, first compound 1 µM",94.7%
same,"viability, T/C","second compound 0.00949 µM, first compound 0.00316 µM",97.7%
same,"viability, T/C","second compound 0.00949 µM, first compound 0.01 µM",111%
same,"viability, T/C","second compound 0.00949 µM, first compound 0.0316 µM",109%
same,"viability, T/C","second compound 0.00949 µM, first compound 0.1 µM",115%
same,"viability, T/C","second compound 0.00949 µM, first compound 0.316 µM",97.9%
same,"viability, T/C","second compound 0.00949 µM, first compound 1 µM",97.7%
same,"viability, T/C","second compound 0.03 µM, first compound 0.00316 µM",99.3%
same,"viability, T/C","second compound 0.03 µM, first compound 0.01 µM",92.8%
same,"viability, T/C","second compound 0.03 µM, first compound 0.0316 µM",97.7%
same,"viability, T/C","second compound 0.03 µM, first compound 0.1 µM",95.8%
same,"viability, T/C","second compound 0.03 µM, first compound 0.316 µM",95.2%
same,"viability, T/C","second compound 0.03 µM, first compound 1 µM",91.9%
same,"viability, T/C","second compound 0.0949 µM, first compound 0.00316 µM",88.5%
same,"viability, T/C","second compound 0.0949 µM, first compound 0.01 µM",86.8%
same,"viability, T/C","second compound 0.0949 µM, first compound 0.0316 µM",104%
same,"viability, T/C","second compound 0.0949 µM, first compound 0.1 µM",96.4%
same,"viability, T/C","second compound 0.0949 µM, first compound 0.316 µM",98.1%
same,"viability, T/C","second compound 0.0949 µM, first compound 1 µM",74.4%
same,"viability, T/C","second compound 0.3 µM, first compound 0.00316 µM",80%
same,"viability, T/C","second compound 0.3 µM, first compound 0.01 µM",78.2%
same,"viability, T/C","second compound 0.3 µM, first compound 0.0316 µM",90.1%
same,"viability, T/C","second compound 0.3 µM, first compound 0.1 µM",69.1%
same,"viability, T/C","second compound 0.3 µM, first compound 0.316 µM",89.4%
same,"viability, T/C","second compound 0.3 µM, first compound 1 µM",79.7%
CCN1CCN(Cc2ccc(Nc3ncc(F)c(-c4cc(F)c5nc(C)n(C(C)C)c5c4)n3)nc2)CC1,"viability, T/C",compound 0.00316 µM,102% [middle of 4 runs]
same,"viability, T/C",compound 0.0316 µM,87% [middle of 4 runs]
same,"viability, T/C",compound 0.1 µM,81.5% [middle of 4 runs]
same,IC50,curve of compound,> 1000 nM

# Reference: PubChem BioAssay AID2060900 (Molecular Pharmacology Branch, DTP, NCI, 2025)
